# Source: patent US20240018145A1, “[…]-DEPENDENT EN[…] TREATING OR […]” (priority 2020, published 2024)
# Tested on: FLU A (PR/8/34)
# Assay: Flu A Neuraminidase Antiviral Assay
# Type: cell-based
# Conditions: not given
row,Structure (SMILES),EC50
1,"CN1C(=O)c2c(O)c(=O)ccn2N2C1CCC2(C)c1ccccc1Cl (single isomer, unassigned) [Compound 63A, 1-(2-chlorophenyl)-6-hydroxy-1,4-dimethyl-2,3,3a,4-tetrahydro-1H-pyrido[2,1-f]pyrrolo[1,2-b][1,2,4]triazine-5,7-dione]",> 8100 nM
2,"CN1C(=O)c2c(O)c(=O)ccn2N2C1CCC2(C)c1ccccc1Cl (single isomer, unassigned) [Compound 63B, 1-(2-chlorophenyl)-6-hydroxy-1,4-dimethyl-2,3,3a,4-tetrahydro-1H-pyrido[2,1-f]pyrrolo[1,2-b][1,2,4]triazine-5,7-dione]",160 nM
3,"CN1C(=O)c2c(O)c(=O)ccn2N2C1CCC1(CCC(F)(F)C1)C2c1ccccc1 (single isomer, unassigned) [Compound 68B, 3,3-difluoro-7′-hydroxy-5′-methyl-1′-phenyl-3′,4′,4a′,5′-tetrahydro-1′H-spiro[cyclopentane-1,2′-dipyrido[1,2-b:2′,1′-f][1,2,4]triazine]-6′,8′-dione]",> 810 nM
4,"CN1C(=O)c2c(O)c(=O)ccn2N2C1CCC1(CCC(F)(F)C1)C2c1ccccc1 (single isomer, unassigned) [Compound 68C, 3,3-difluoro-7′-hydroxy-5′-methyl-1′-phenyl-3′,4′,4a′,5′-tetrahydro-1′H-spiro[cyclopentane-1,2′-dipyrido[1,2-b:2′,1′-f][1,2,4]triazine]-6′,8′-dione]",11.4 nM
5,"CN1C(=O)c2c(O)c(=O)ccn2N2C1CCC1(CCC(F)(F)C1)C2c1ccccc1 (single isomer, unassigned) [Compound 68D, 3,3-difluoro-7′-hydroxy-5′-methyl-1′-phenyl-3′,4′,4a′,5′-tetrahydro-1′H-spiro[cyclopentane-1,2′-dipyrido[1,2-b:2′,1′-f][1,2,4]triazine]-6′,8′-dione]",11.8 nM
6,"Cc1ccccc1C1N2C(CCC13CC1C(C3)C1(F)F)N(C)C(=O)c1c(O)c(=O)ccn12 (single isomer, unassigned) [Compound 69A, 6,6-difluoro-7′-hydroxy-5′-methyl-1′-(o-tolyl)-3′,4′,4a′,5′-tetrahydro-1′H-spiro[bicyclo[3.1.0]hexane-3,2′-dipyrido[1,2-b:2′,1′-f][1,2,4]triazine]-6′,8′-dione]",2.3 nM
7,"Cc1ccccc1C1N2C(CCC13CC1C(C3)C1(F)F)N(C)C(=O)c1c(O)c(=O)ccn12 (single isomer, unassigned) [Compound 69B, 6,6-difluoro-7′-hydroxy-5′-methyl-1′-(o-tolyl)-3′,4′,4a′,5′-tetrahydro-1′H-spiro[bicyclo[3.1.0]hexane-3,2′-dipyrido[1,2-b:2′,1′-f][1,2,4]triazine]-6′,8′-dione]",57 nM
8,"Cc1ccccc1C1N2C(CCC13CC1C(C3)C1(F)F)N(C)C(=O)c1c(O)c(=O)ccn12 (single isomer, unassigned) [Compound 69C, 6,6-difluoro-7′-hydroxy-5′-methyl-1′-(o-tolyl)-3′,4′,4a′,5′-tetrahydro-1′H-spiro[bicyclo[3.1.0]hexane-3,2′-dipyrido[1,2-b:2′,1′-f][1,2,4]triazine]-6′,8′-dione]",88.4 nM
9,"Cc1ccccc1C1N2C(CCC13CCC(F)(F)CC3)N(C)C(=O)c1c(O)c(=O)ccn12 (single isomer, unassigned) [Compound 70A, 4,4-difluoro-7′-hydroxy-5′-methyl-1′-(o-tolyl)-3′,4′,4a′,5′-tetrahydro-1′H-spiro[cyclohexane-1,2′dipyrido[1,2-b:2′,1′-f][1,2,4]triazine]-6′,8′-dione]",299 nM
10,"Cc1ccccc1C1N2C(CCC13CCC(F)(F)CC3)N(C)C(=O)c1c(O)c(=O)ccn12 (single isomer, unassigned) [Compound 70B, 4,4-difluoro-7′-hydroxy-5′-methyl-1′-(o-tolyl)-3′,4′,4a′,5′-tetrahydro-1′H-spiro[cyclohexane-1,2′dipyrido[1,2-b:2′,1′-f][1,2,4]triazine]-6′,8′-dione]",2 nM
11,"CN1C(=O)c2c(O)c(=O)ccn2N2C1CCC(C)(CC(F)(F)F)C2c1ccccc1 (single isomer, unassigned) [Compound 71A, 7-hydroxy-2,5-dimethyl-1-phenyl-2-(2,2,2-trifluoroethyl)-1,2,3,4,4a,5-hexahydrodipyrido[1,2-b:2′,1′-f][1,2,4]triazine-6,8-dione]",5910 nM
12,"CN1C(=O)c2c(O)c(=O)ccn2N2C1CCC(C)(CC(F)(F)F)C2c1ccccc1 (single isomer, unassigned) [Compound 71B, 7-hydroxy-2,5-dimethyl-1-phenyl-2-(2,2,2-trifluoroethyl)-1,2,3,4,4a,5-hexahydrodipyrido[1,2-b:2′,1′-f][1,2,4]triazine-6,8-dione]",18.5 nM
13,"CN1C(=O)c2c(O)c(=O)ccn2N2C1CCC1(CCC(F)(F)CC1)C2c1ccccc1 (single isomer, unassigned) [Compound 72A, 4,4-difluoro-7′-hydroxy-5′-methyl-1′-phenyl-3′,4′,4a′,5′-tetrahydro-1′H-spiro[cyclohexane-1,2′-dipyrido[1,2-b:2′,1′-f][1,2,4]triazine]-6′,8′-dione]",> 810 nM
14,"CN1C(=O)c2c(O)c(=O)ccn2N2C1CCC1(CCC(F)(F)CC1)C2c1ccccc1 (single isomer, unassigned) [Compound 72B, 4,4-difluoro-7′-hydroxy-5′-methyl-1′-phenyl-3′,4′,4a′,5′-tetrahydro-1′H-spiro[cyclohexane-1,2′-dipyrido[1,2-b:2′,1′-f][1,2,4]triazine]-6′,8′-dione]",3.8 nM
15,"CN1C(=O)c2c(O)c(=O)ccn2N2C1CCC1(CCC(C(F)(F)F)CC1)C2c1ccccc1 (single isomer, unassigned) [Compound 73A, 7′-hydroxy-5′-methyl-1′-phenyl-4-(trifluoromethyl)-3′,4′,4a′,5′-tetrahydro-1′H-spiro[cyclohexane-1,2′-dipyrido[1,2-b:2′,1′-f][1,2,4]triazine]-6′,8′-dione]",> 810 nM
16,"CN1C(=O)c2c(O)c(=O)ccn2N2C1CCC1(CCC(C(F)(F)F)CC1)C2c1ccccc1 (single isomer, unassigned) [Compound 73B, 7′-hydroxy-5′-methyl-1′-phenyl-4-(trifluoromethyl)-3′,4′,4a′,5′-tetrahydro-1′H-spiro[cyclohexane-1,2′-dipyrido[1,2-b:2′,1′-f][1,2,4]triazine]-6′,8′-dione]",> 810 nM
17,"CN1C(=O)c2c(O)c(=O)ccn2N2C1CCC1(CCC(C(F)(F)F)CC1)C2c1ccccc1 (single isomer, unassigned) [Compound 73C, 7′-hydroxy-5′-methyl-1′-phenyl-4-(trifluoromethyl)-3′,4′,4a′,5′-tetrahydro-1′H-spiro[cyclohexane-1,2′-dipyrido[1,2-b:2′,1′-f][1,2,4]triazine]-6′,8′-dione]",105 nM
18,"CN1C(=O)c2c(O)c(=O)ccn2N2C1CCC1(CCC(C(F)(F)F)CC1)C2c1ccccc1 (single isomer, unassigned) [Compound 73D, 7′-hydroxy-5′-methyl-1′-phenyl-4-(trifluoromethyl)-3′,4′,4a′,5′-tetrahydro-1′H-spiro[cyclohexane-1,2′-dipyrido[1,2-b:2′,1′-f][1,2,4]triazine]-6′,8′-dione]",6.6 nM
19,"CN1C(=O)c2c(O)c(=O)ccn2N2C1CCC1(CC(F)(F)C1)C2c1ccccc1 (single isomer, unassigned) [Compound 74A, 3,3-difluoro-7′-hydroxy-5′-methyl-1′-phenyl-3′,4′,4a′,5′-tetrahydro-1′H-spiro[cyclobutane-1,2′-dipyrido[1,2-b:2′,1′-f][1,2,4]triazine]-6′,8′-dione]",> 810 nM
20,"CN1C(=O)c2c(O)c(=O)ccn2N2C1CCC1(CC(F)(F)C1)C2c1ccccc1 (single isomer, unassigned) [Compound 74B, 3,3-difluoro-7′-hydroxy-5′-methyl-1′-phenyl-3′,4′,4a′,5′-tetrahydro-1′H-spiro[cyclobutane-1,2′-dipyrido[1,2-b:2′,1′-f][1,2,4]triazine]-6′,8′-dione]",15.7 nM
21,"CN1C(=O)c2c(O)c(=O)ccn2N2C1CCC1(CC(F)(F)C1)C2c1ccccc1 (single isomer, unassigned) [Compound 74C, 3,3-difluoro-7′-hydroxy-5′-methyl-1′-phenyl-3′,4′,4a′,5′-tetrahydro-1′H-spiro[cyclobutane-1,2′-dipyrido[1,2-b:2′,1′-f][1,2,4]triazine]-6′,8′-dione]",32.5 nM
22,"CN1C(=O)c2c(O)c(=O)ccn2N2C1CCC1(CC(F)(F)C1)C2c1ccccc1 (single isomer, unassigned) [Compound 74D, 3,3-difluoro-7′-hydroxy-5′-methyl-1′-phenyl-3′,4′,4a′,5′-tetrahydro-1′H-spiro[cyclobutane-1,2′-dipyrido[1,2-b:2′,1′-f][1,2,4]triazine]-6′,8′-dione]",442 nM
23,"CN1C(=O)c2c(O)c(=O)ccn2N2C1CCC1(CCCC(F)(F)C1)C2c1ccccc1 (single isomer, unassigned) [Compound 75A, 3,3-difluoro-7′-hydroxy-5′-methyl-1′-phenyl-3′,4′,4a′,5′-tetrahydro-1′H-spiro[cyclohexane-1,2′-dipyrido[1,2-b:2′,1′-f][1,2,4]triazine]-6′,8′-dione]",> 810 nM
24,"CN1C(=O)c2c(O)c(=O)ccn2N2C1CCC1(CCCC(F)(F)C1)C2c1ccccc1 (single isomer, unassigned) [Compound 75B, 3,3-difluoro-7′-hydroxy-5′-methyl-1′-phenyl-3′,4′,4a′,5′-tetrahydro-1′H-spiro[cyclohexane-1,2′-dipyrido[1,2-b:2′,1′-f][1,2,4]triazine]-6′,8′-dione]",8 nM
25,"CN1C(=O)c2c(O)c(=O)ccn2N2C1CCC1(CCCC(F)(F)C1)C2c1ccccc1 (single isomer, unassigned) [Compound 75C, 3,3-difluoro-7′-hydroxy-5′-methyl-1′-phenyl-3′,4′,4a′,5′-tetrahydro-1′H-spiro[cyclohexane-1,2′-dipyrido[1,2-b:2′,1′-f][1,2,4]triazine]-6′,8′-dione]",140 nM

# Same assay, conditions: MDCK, 48 h
row,Structure (SMILES),EC50
1,"CN1C(=O)c2c(O)c(=O)ccn2N2C1CCC1(CCC(F)(F)C1)C2c1ccccc1 (single isomer, unassigned) [Compound 68A, 3,3-difluoro-7′-hydroxy-5′-methyl-1′-phenyl-3′,4′,4a′,5′-tetrahydro-1′H-spiro[cyclopentane-1,2′-dipyrido[1,2-b:2′,1′-f][1,2,4]triazine]-6′,8′-dione]",349 nM
